Reference: patent US20250114390A1, “MULTI-ACTIVE TABLET IN THE TREATMENT AND CONTROL OF SEVERE CHRONIC PAIN AND METHOD OF PREPARATION” (LABORATORIOS SILANES S.A. DE C.V., priority 2023, published 2025)
In brackets after ≈: the same amount, converted by molar mass. Read-outs that look alike come from different tables or passages of the source.

How the values were obtained:
[1] = cited from earlier work
[2] = cited from earlier work; remark: listed apart in the source
[3] = test system: healthy subjects; assay: Adverse events in the comparative bioavailability clinical trial; conditions: single dose
Text: The study was open, longitudinal, prospective, with a 3×6×3 design, with random assignment, single dose, three treatments, three periods and six sequences under fasting conditions, in a healthy Mexican female and male population with a washout time for drug elimination of one week (07 days) between each period.
Due to the COVID-19 health emergency, the 42 research subjects were divided into two hospitalization groups: Group 1 with 22 research subjects and Group 2 with 20 research subjects. After fasting for at least 10 hours, a blood sample was taken at time 0.00 hours, and a dose of celecoxib/pregabalin/vitamin B, 200 mg/150 mg tablets/vitamin B12 500 μg/vitamin B1 100 mg/vitamin B6 50 mg was administered, in a single dose of the test medicament or the reference medicament as monotherapy (celecoxib 200 mg capsule or pregabalin 150 mg capsule) according to prior randomization, orally with 250 ml of water at room temperature. After administration of the corresponding medicament, another 17 samples were taken at the following times: 0.50, 0.75, 1.00, 1.33, 1.66, 2.00, 2.50, 3.00, 3.50, 4.00, 6.00, 8.00, 10.00, 14.00, 24.00, 36.00- and 48.00-hours post-dose.

For `Cc1ncc(C[n+]2csc(CCO)c2C)c(N)n1` [Thiamine], the pKa [1] is given as 15.5, the Solubility in chloroform ([1]; in words) is given as “very slightly soluble” and the “Solubility in diethyl ether” value ([1]; in words) is given as “almost insoluble”. For the same molecule, the Solubility in ethanol ([1]; in words) was “slightly soluble”, the “Solubility in hot water” value ([1]; in words) was “Freely soluble” and the Solubility in methanol ([1]; in words) was “slightly soluble”. The Solubility in water ([1]; in words) was “slightly soluble”.
For `Cc1ncc(CO)c(CO)c1O` [Pyridoxine], the “Stability (description)” value ([1]; air, light) is given as “stable in air and slowly decomposes with light”, the pKa [1] is given as 9.4 and the Solubility in alcohol ([1]; in words) is given as “slightly soluble”. For the same molecule, the “Solubility in diethyl ether” value ([1]; in words) was “almost insoluble” and the Solubility in water ([1]; in words) was “Easily soluble”.
In the case of `Cc1ccc(-c2cc(C(F)(F)F)nn2-c2ccc(S(N)(=O)=O)cc2)cc1` [Celecoxib], the Cmax of celecoxib ([2]; Author: Center for Drug Evaluation, 1999) is given as 0.6 ± 0.9 µg/mL, the ABC0-t of celecoxib ([2]; Author: Laboratorios Silanes) is given as 5593.760 ± 2158.606 ng/mL*h and the Cmax of celecoxib ([2]; Author: Laboratorios Silanes) is given as 0.602685 ± 0.30148 µg/mL. For the same molecule, the ABC0-t of celecoxib ([2]; Author: Lilitkarntrakul, P) was 5157.12 ± 1499.46 ng/mL*h, the Cmax of celecoxib ([2]; Author: Lilitkarntrakul, P) was 0.68683 ± 0.21135 µg/mL and the ABC0-t of celecoxib ([2]; Author: Paulson, S) was 5994.0 ± 2393.0 ng/mL*h. For the same molecule, the Cmax of celecoxib ([2]; Author: Paulson, S) was 0.806 ± 0.411 µg/mL, the ABC0-t of celecoxib ([2]; Author: Sy-Yeuan J) was 7267.48 ± 2077.68 ng/mL*h and the Cmax of celecoxib ([2]; Author: Sy-Yeuan J) was 0.70386 ± 0.32991 µg/mL. The Solubility [1] was 3.3 mg/mL (≈ 8.65 mM) and the “Solubility (biopharmaceutical classification)” value [1] was “low solubility”.
In the case of `CC(C)C[C@H](CN)CC(=O)O` [Pregabalin], the “Permeability (biopharmaceutical classification)” value ([1]; not told) is given as “high permeability”, the “Adverse events probably related to dosing, total” value [3] is given as 16 events and the Events of dizziness [3] is given as 13 events. For the same molecule, the Events of headache [3] was 1 events, the Events of paresthesia [3] was 1 events and the “Events of visual disturbances” value [3] was 1 events.
In the case of Cyanocobalamin, the pH ([1]; 1 g/L at 20° C.) is listed as 6.0, the Solubility [1] is listed as 12 mg/mL and the pKa [1] is listed as 1.82. For the same molecule, the Solubility in acetone ([1]; in words) was “almost insoluble”, the Solubility in alcohol ([1]; in words) was “Soluble” and the Solubility in chloroform ([1]; in words) was “almost insoluble”. For the same molecule, the “Solubility in diethyl ether” value ([1]; in words) was “almost insoluble” and the Solubility in water ([1]; in words) was “slightly soluble”.
